According to patent US10301292B2, “Bicyclic compound” (Takeda Pharmaceutical Company Limited, priority 2014, dated 2019):

Molecular target: T1, human ACC1 (Homo sapiens, UniProt Q13085)
T1 construct: His tag (from vector pFAST-BacHTc; protein captured on Ni-NTA) (N); made in house; host or cells: SF-9 insect cells, recombinant baculovirus BAC-ACC1
Assay: Measurement of ACC1 inhibitory activity (Malonyl-CoA production, RapidFire-mass spectrometry)
Assay type: biochemical
Details: 10 μM of the test compound; recombinant human ACC1; read-out: ACC1 inhibitory rate (%) at 10 μM
Summary of the method: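 Sf9-expressed His-tagged human ACC1, diluted to 0.2 μg/ml in HEPES pH 7.5/MgCl2/citrate/DTT/0.001% BSA, was preincubated 60 min at RT with compound. Reaction started with substrate solution (50 mM KHCO3, 200 μM ATP, 200 μM acetyl-CoA), ran 30 min at RT, then was formic acid-quenched. Malonyl-CoA was quantified by RapidFire-MS against malonyl-13C3-CoA.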

Compound `CC(NC(N)=O)c1ccc2nc(-c3ccc(Oc4cccc(OCC5CC5)c4)nc3)oc2c1` (stereo not shown) [Example 98, 1-(1-(2-(6-(3-(cyclopropylmethoxy)phenoxy)pyridin-3-yl)-1,3-benzoxazol-6-yl)ethyl)urea] has an inhibition at 10 µM of 98%.
